Laboratory results published in US9187434B2, “Substituted 1,5-benzodiazepinones compounds” (BRISTOL-MYERS SQUIBB COMPANY, priority 2012, dated 2015).

Test system: human Notch 1
Test: Notch-CBF1 Transactivation Assay (Notch 1)
Type: cell-based
Details: HeLa cells co-transfected with truncated Notch 1 and CBF1 luciferase reporter; 18 hours incubation
Description: (§1) Notch-CBF1 Transactivation Assay
(§2) Table 12 denotes respective DNA quantity for the transfections.
(§3) Duplicates were used for each sample.

Compound | IC50 [µM]
NC(=O)[C@@H](CCC(F)(F)F)[C@@H](CCC(F)(F)F)C(=O)N[C@H]1CN(c2ccc(Cl)cc2)c2ccccc2NC1=O [Example 4, (2R,3S)—N-((3S)-1-(4-Chlorophenyl)-4-oxo-2,3,4,5-tetrahydro-1H-1,5-benzodiazepin-3-yl)-2,3-bis(3,3,3-trifluoropropyl)succinamide] | 0.0174
NC(=O)[C@@H](CCC(F)(F)F)[C@@H](CCC(F)(F)F)C(=O)N[C@H]1CN(c2ccc(F)cc2)c2ccccc2NC1=O [Example 6, (2R,3S)—N-((3S)-1-(4-Fluorophenyl)-4-oxo-2,3,4,5-tetrahydro-1H-1,5-benzodiazepin-3-yl)-2,3-bis(3,3,3-trifluoropropyl)succinamide] | 0.0139
N#Cc1cccc(N2C[C@H](NC(=O)[C@H](CCC(F)(F)F)[C@H](CCC(F)(F)F)C(N)=O)C(=O)Nc3c(C(F)F)cccc32)c1 [Example 10, (2R,3S)—N-((3S)-1-(3-Cyanophenyl)-6-(difluoromethyl)-4-oxo-2,3,4,5-tetrahydro-1H-1,5-benzodiazepin-3-yl)-2,3-bis(3,3,3-trifluoropropyl)succinamide] | 0.012
N#Cc1cccc(N2C[C@H](NC(=O)[C@H](CCC(F)(F)F)[C@H](CCC(F)(F)F)C(N)=O)C(=O)Nc3c(F)cccc32)c1 [Example 17, (2R,3S)—N-((3S)-1-(3-Cyanophenyl)-6-fluoro-4-oxo-2,3,4,5-tetrahydro-1H-1,5-benzodiazepin-3-yl)-2,3-bis(3,3,3-trifluoropropyl)succinamide] | 0.0176
N#Cc1cccc(N2C[C@H](NC(=O)[C@H](CCC(F)(F)F)[C@H](CCC(F)(F)F)C(N)=O)C(=O)Nc3c(Cl)cccc32)c1 [Example 23, (2R,3S)—N-((3S)-6-Chloro-1-(3-cyanophenyl)-4-oxo-2,3,4,5-tetrahydro-1H-1,5-benzodiazepin-3-yl)-2,3-bis(3,3,3-trifluoropropyl)succinamide] | 0.0116
N#Cc1cccc(N2C[C@H](NC(=O)[C@H](CCC(F)(F)F)[C@H](CC3CC3)C(N)=O)C(=O)Nc3c(Cl)cccc32)c1 [Example 25, (2R,3S)—N-((3S)-6-Chloro-1-(3-cyanophenyl)-4-oxo-2,3,4,5-tetrahydro-1H-1,5-benzodiazepin-3-yl)-3-(cyclopropylmethyl)-2-(3,3,3-trifluoropropyl)succinamide] | 0.0146
N#Cc1ccccc1N1C[C@H](NC(=O)[C@H](CCC(F)(F)F)[C@H](CC2CC2)C(N)=O)C(=O)Nc2c(Cl)cccc21 [Example 26, (2R,3S)—N-((3S)-6-Chloro-1-(2-cyanophenyl)-4-oxo-2,3,4,5-tetrahydro-1H-1,5-benzodiazepin-3-yl)-3-(cyclopropylmethyl)-2-(3,3,3-trifluoropropyl)succinamide] | 0.0225

Test system: human Notch 3
Test: Notch-CBF1 Transactivation Assay (Notch 3)
Type: cell-based
Details: HeLa cells co-transfected with truncated Notch 3 and CBF1 luciferase reporter; 18 hours incubation
Description: as §1, §2, §3

Compound | IC50 [µM]
N#Cc1ccccc1N1C[C@H](NC(=O)[C@H](CCC(F)(F)F)[C@H](CC2CC2)C(N)=O)C(=O)Nc2c(Cl)cccc21 [Example 26, (2R,3S)—N-((3S)-6-Chloro-1-(2-cyanophenyl)-4-oxo-2,3,4,5-tetrahydro-1H-1,5-benzodiazepin-3-yl)-3-(cyclopropylmethyl)-2-(3,3,3-trifluoropropyl)succinamide] | 0.0462

Test system: not listed separately
Test: Human metabolic stability half-life assay
Type: in vitro ADME
Details: liver microsomes, pH 7.4, human liver microsomes, 0.5 μM compound, NADPH, 45-minute time course, read-out: HLM t1/2
Description: Metabolic Stability Half-Life Panel

Compound | half-life at 0.5 μM [min]
NC(=O)[C@@H](CCC(F)(F)F)[C@@H](CCC(F)(F)F)C(=O)N[C@H]1CN(c2cccc(C3CC3)c2)c2cccc(Cl)c2NC1=O [Example 1, (2R,3S)—N-((3S)-6-Chloro-1-(3-cyclopropylphenyl)-4-oxo-2,3,4,5-tetrahydro-1H-1,5-benzodiazepin-3-yl)-2,3-bis(3,3,3-trifluoropropyl)succinamide] | ≥ 31
NC(=O)[C@@H](CCC(F)(F)F)[C@@H](CCC(F)(F)F)C(=O)N[C@H]1CN(c2cccc(Cl)c2)c2ccccc2NC1=O [Example 3, (2R,3S)—N-((3S)-1-(3-Chlorophenyl)-4-oxo-2,3,4,5-tetrahydro-1H-1,5-benzodiazepin-3-yl)-2,3-bis(3,3,3-trifluoropropyl)succinamide] | ≥ 31
NC(=O)[C@@H](CCC(F)(F)F)[C@@H](CCC(F)(F)F)C(=O)N[C@H]1CN(c2cccc(C3CC3)c2)c2ccccc2NC1=O [Example 5, (2R,3S)—N-((3S)-1-(3-Cyclopropylphenyl)-4-oxo-2,3,4,5-tetrahydro-1H-1,5-benzodiazepin-3-yl)-2,3-bis(3,3,3-trifluoropropyl)succinamide] | ≥ 31
NC(=O)[C@@H](CCC(F)(F)F)[C@@H](CCC(F)(F)F)C(=O)N[C@H]1CN(c2cccc(Cl)c2)c2cccc(C3CC3)c2NC1=O [Example 7, (2R,3S)—N-((3S)-1-(3-Chlorophenyl)-6-cyclopropyl-4-oxo-2,3,4,5-tetrahydro-1H-1,5-benzodiazepin-3-yl)-2,3-bis(3,3,3-trifluoropropyl)succinamide] | ≥ 31
NC(=O)[C@@H](CC1CC1)[C@@H](CCC(F)(F)F)C(=O)N[C@H]1CN(c2cccc(C3CC3)c2)c2cccc(F)c2NC1=O [Example 15, (2R,3S)-3-(Cyclopropylmethyl)-N-((3S)-1-(3-cyclopropylphenyl)-6-fluoro-4-oxo-2,3,4,5-tetrahydro-1H-1,5-benzodiazepin-3-yl)-2-(3,3,3-trifluoropropyl)succinamide] | ≥ 31
N#Cc1cccc(N2C[C@H](NC(=O)[C@H](CCC(F)(F)F)[C@H](CC3CC3)C(N)=O)C(=O)Nc3c(Cl)cccc32)c1 [Example 25, (2R,3S)—N-((3S)-6-Chloro-1-(3-cyanophenyl)-4-oxo-2,3,4,5-tetrahydro-1H-1,5-benzodiazepin-3-yl)-3-(cyclopropylmethyl)-2-(3,3,3-trifluoropropyl)succinamide] | ≥ 31
N#Cc1ccccc1N1C[C@H](NC(=O)[C@H](CCC(F)(F)F)[C@H](CC2CC2)C(N)=O)C(=O)Nc2c(Cl)cccc21 [Example 26, (2R,3S)—N-((3S)-6-Chloro-1-(2-cyanophenyl)-4-oxo-2,3,4,5-tetrahydro-1H-1,5-benzodiazepin-3-yl)-3-(cyclopropylmethyl)-2-(3,3,3-trifluoropropyl)succinamide] | ≥ 31
N#Cc1cc(F)cc(N2C[C@H](NC(=O)[C@H](CCC(F)(F)F)[C@H](CC3CC3)C(N)=O)C(=O)Nc3c(Cl)cccc32)c1 [Example 28, (2R,3S)—N-((3S)-6-Chloro-1-(3-cyano-5-fluorophenyl)-4-oxo-2,3,4,5-tetrahydro-1H-1,5-benzodiazepin-3-yl)-3-(cyclopropylmethyl)-2-(3,3,3-trifluoropropyl)succinamide] | ≥ 31
NC(=O)[C@@H](CC1CC1)[C@@H](CCC(F)(F)F)C(=O)N[C@H]1CN(c2cccc(C3CC3)c2)c2cccc(Cl)c2NC1=O [Example 29, (2R,3S)—N-((3S)-6-Chloro-1-(3-cyclopropylphenyl)-4-oxo-2,3,4,5-tetrahydro-1H-1,5-benzodiazepin-3-yl)-3-(cyclopropylmethyl)-2-(3,3,3-trifluoropropyl)succinamide] | ≥ 31
NC(=O)[C@@H](CCC(F)(F)F)[C@@H](CCC(F)(F)F)C(=O)N[C@H]1CN(c2cccc(Cl)c2)c2cccc(Cl)c2NC1=O [Example 31, (2R,3S)—N-((3S)-6-Chloro-1-(3-chlorophenyl)-4-oxo-2,3,4,5-tetrahydro-1H-1,5-benzodiazepin-3-yl)-2,3-bis(3,3,3-trifluoropropyl)succinamide] | ≥ 31
NC(=O)[C@@H](CCC(F)(F)F)[C@@H](CCC(F)(F)F)C(=O)N[C@H]1CN(c2ccccn2)c2cccc(Cl)c2NC1=O [Example 33, (2R,3S)—N-((3S)-6-Chloro-4-oxo-1-(2-pyridinyl)-2,3,4,5-tetrahydro-1H-1,5-benzodiazepin-3-yl)-2,3-bis(3,3,3-trifluoropropyl)succinamide] | ≥ 31
NC(=O)[C@@H](c1ccccc1)[C@@H](CCC(F)(F)F)C(=O)N[C@H]1CN(c2cccc(C(F)(F)F)n2)c2cccc(Cl)c2NC1=O [Example 34, (2R,3R)—N-((3S)-6-Chloro-4-oxo-1-(6-(trifluoromethyl)-2-pyridinyl)-2,3,4,5-tetrahydro-1H-1,5-benzodiazepin-3-yl)-3-phenyl-2-(3,3,3-trifluoropropyl)succinamide] | ≥ 31
NC(=O)[C@@H](CCC(F)(F)F)[C@@H](CCC(F)(F)F)C(=O)N[C@H]1CN(c2ccccc2)c2ccc(F)cc2NC1=O [Example 37, (2R,3S)—N-((3S)-7-Fluoro-4-oxo-1-phenyl-2,3,4,5-tetrahydro-1H-1,5-benzodiazepin-3-yl)-2,3-bis(3,3,3-trifluoropropyl)succinamide] | ≥ 31
